Converted amounts (≈) assume the structure as drawn. The source made the active and inactive calls. The rule behind the calls is not given here.
Tests used:
[1] = Intrinsic clearance in rat liver microsomes at 1 uM after 5 to 30 mins by LC-MS/MS analysis; type: ADME, microsome; conditions: read-out: CLH
[2] = molecular target: Platelet-derived growth factor receptor alpha (Homo sapiens, UniProt P16234); assay: Inhibition of human PDGFRalpha
[3] = AUC (0 to last) in cynomolgus monkey plasma administered 0.5% suspension using 30 uL topical drop to both eyes every 3 hrs for 9 hrs over 5 days and single drop to each eye on day 6 by LC-MS/MS analysis; type: ADME, Macaca fascicularis; conditions: topical or ocular, 30 uL of 0.5% suspension per eye
[4] = molecular target: Mast/stem cell growth factor receptor Kit (Homo sapiens, UniProt P10721); assay: Inhibition of human KIT
Chain of Mast/stem cell growth factor receptor Kit (P10721 whole entry): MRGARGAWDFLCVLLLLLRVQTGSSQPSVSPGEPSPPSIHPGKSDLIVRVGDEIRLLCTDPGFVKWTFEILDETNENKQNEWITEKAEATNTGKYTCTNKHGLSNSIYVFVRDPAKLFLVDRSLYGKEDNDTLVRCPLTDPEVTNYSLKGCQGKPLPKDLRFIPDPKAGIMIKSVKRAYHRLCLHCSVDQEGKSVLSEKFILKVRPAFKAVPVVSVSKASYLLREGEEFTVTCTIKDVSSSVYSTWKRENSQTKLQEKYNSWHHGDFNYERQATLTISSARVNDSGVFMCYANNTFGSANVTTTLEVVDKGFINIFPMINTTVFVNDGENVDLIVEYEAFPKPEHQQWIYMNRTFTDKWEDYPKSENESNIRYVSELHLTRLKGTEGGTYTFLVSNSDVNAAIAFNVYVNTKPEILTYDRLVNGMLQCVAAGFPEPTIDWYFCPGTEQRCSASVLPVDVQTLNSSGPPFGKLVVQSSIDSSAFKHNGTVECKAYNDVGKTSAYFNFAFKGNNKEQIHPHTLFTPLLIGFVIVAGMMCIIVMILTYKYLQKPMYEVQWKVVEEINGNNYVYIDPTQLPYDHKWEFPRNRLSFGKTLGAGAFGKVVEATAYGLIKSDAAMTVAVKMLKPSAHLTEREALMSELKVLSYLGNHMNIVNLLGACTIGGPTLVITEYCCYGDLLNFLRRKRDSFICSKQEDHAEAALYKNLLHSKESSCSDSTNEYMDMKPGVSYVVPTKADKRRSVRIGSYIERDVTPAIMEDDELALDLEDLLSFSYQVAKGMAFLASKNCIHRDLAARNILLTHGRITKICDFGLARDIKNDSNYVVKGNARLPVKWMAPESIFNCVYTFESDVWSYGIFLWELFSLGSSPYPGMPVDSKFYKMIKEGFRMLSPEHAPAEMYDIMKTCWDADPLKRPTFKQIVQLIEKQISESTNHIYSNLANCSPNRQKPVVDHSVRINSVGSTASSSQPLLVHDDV

[5] = AUC (0 to last) in retina of Brown Norway rat administered 0.3% suspension using 4 uL topical drop to both eyes as single dose by LC-MS/MS analysis; type: ADME, tissue-based; set-up: dose 4 uL, time 0 - last, route ophthalmic; conditions: topical or ocular, 4 uL of 0.3% suspension per eye
[6] = tested on: Cynomolgus monkey; assay: Toxicity in cynomolgus monkey adnexa region of eye administered 0.5% suspension using 30 uL topical drop to both eyes every 3 hrs for 9 hrs over 5 days by slit lamp biomicroscopic method; set-up: species or system Macaca fascicularis; conditions: in vivo, topical_or_ocular
[7] = Cmax in posterior eye cup of Brown Norway rat administered 0.3% suspension using 4 uL topical drop to both eyes every 3 hrs for 9 hrs over 10 days and single drop to each eye on day 11 by LC-MS/MS analysis; type: ADME; conditions: topical or ocular, 4 uL of 0.3% suspension per eye
[8] = Cmax in cynomolgus monkey plasma administered 0.5% suspension using 30 uL topical drop to both eyes every 3 hrs for 9 hrs over 5 days and single drop to each eye on day 6 by LC-MS/MS analysis; type: ADME, Macaca fascicularis; conditions: topical or ocular, 30 uL of 0.5% suspension per eye
[9] = Cmax in retina of Brown Norway rat administered 0.3% suspension using 4 uL topical drop to both eyes as single dose by LC-MS/MS analysis; type: ADME, tissue-based; set-up: dose 4 uL, route ophthalmic; conditions: topical or ocular, 4 uL of 0.3% suspension per eye
[10] = Cmax in plasma of Brown Norway rat administered 0.3% suspension using 4 uL topical drop to both eyes as single dose by LC-MS/MS analysis; type: ADME; set-up: dose 4 uL, route ophthalmic; conditions: topical or ocular, 4 uL of 0.3% suspension per eye
[11] = tested on: Rattus norvegicus; assay: Antiangiogenic activity in Brown Norway rat laser-induced choroidal neovascularization model assessed as inhibition of neovascularization administered 0.09% suspension using 4 uL topical drop to both eyes every 3 hrs for 9 hrs by microscopic analysis; type: functional
[12] = AUC (0 to last) in retina of Brown Norway rat administered 0.3% suspension using 4 uL topical drop to both eyes every 3 hrs for 9 hrs over 10 days and single drop to each eye on day 11 by LC-MS/MS analysis; type: ADME; conditions: topical or ocular, 4 uL of 0.3% suspension per eye
[13] = AUC (0 to last) in cynomolgus monkey plasma administered 0.5% suspension using 30 uL topical drop to both eyes as single dose by LC-MS/MS analysis; type: ADME, Macaca fascicularis; set-up: dose 30 uL, route ophthalmic, time 0 - last; conditions: topical or ocular, 30 uL of 0.5% suspension per eye
[14] = AUC (0 to last) in plasma of Brown Norway rat administered 0.3% suspension using 4 uL topical drop to both eyes every 3 hrs for 9 hrs over 10 days and single drop to each eye on day 11 by LC-MS/MS analysis; type: ADME; conditions: topical or ocular, 4 uL of 0.3% suspension per eye
[15] = Cmax in cynomolgus monkey plasma administered 0.5% suspension using 30 uL topical drop to both eyes as single dose by LC-MS/MS analysis; type: ADME, Macaca fascicularis; set-up: dose 30 uL, route ophthalmic; conditions: topical or ocular, 30 uL of 0.5% suspension per eye
[16] = AUC (0 to last) in posterior eye cup of Brown Norway rat administered 0.3% suspension using 4 uL topical drop to both eyes every 3 hrs for 9 hrs over 10 days and single drop to each eye on day 11 by LC-MS/MS analysis; type: ADME; conditions: topical or ocular, 4 uL of 0.3% suspension per eye
[17] = Tmax in cynomolgus monkey plasma administered 0.5% suspension using 30 uL topical drop to both eyes as single dose by LC-MS/MS analysis; type: ADME, Macaca fascicularis; conditions: topical or ocular, 30 uL of 0.5% suspension per eye
[18] = tested on: Plasma; assay: Plasma concentration in cynomolgus monkey administered 0.5% suspension using 30 uL topical drop to both eyes every 3 hrs for 9 hrs over 5 days and single drop to each eye on day 6 by LC-MS/MS analysis; type: ADME, cell-free, Macaca fascicularis; conditions: topical_or_ocular
[19] = Cmax in posterior eye cup of Brown Norway rat administered 0.3% suspension using 4 uL topical drop to both eyes as single dose by LC-MS/MS analysis; type: ADME; conditions: topical or ocular, 4 uL of 0.3% suspension per eye
[20] = tested on: Cynomolgus monkey; assay: Toxicity in cynomolgus monkey ocular fundus administered 0.5% suspension using 30 uL topical drop to both eyes every 3 hrs for 9 hrs over 5 days by indirect ophthalmoscopic method; set-up: species or system Macaca fascicularis; conditions: in vivo, topical_or_ocular
[21] = Cmax in retina of Brown Norway rat administered 0.3% suspension using 4 uL topical drop to both eyes every 3 hrs for 9 hrs over 10 days and single drop to each eye on day 11 by LC-MS/MS analysis; type: ADME; conditions: topical or ocular, 4 uL of 0.3% suspension per eye
[22] = Plasma concentration in cynomolgus monkey administered 0.5% suspension using 30 uL topical drop to both eyes as single dose measured over 24 hrs by LC-MS/MS analysis; type: ADME, cell-free, Macaca fascicularis; conditions: topical or ocular, 30 uL of 0.5% suspension per eye
[23] = tested on: Rattus norvegicus; assay: Antiangiogenic activity in Brown Norway rat laser-induced choroidal neovascularization model assessed as inhibition of neovascularization administered 0.1% solution to both eyes every 3 hrs for 9 hrs by microscopic analysis; type: functional
[24] = molecular target: Tyrosine-protein kinase ABL1 (Homo sapiens, UniProt P00519); assay: Inhibition of human ABL
Chain of Tyrosine-protein kinase ABL1 (P00519 whole entry): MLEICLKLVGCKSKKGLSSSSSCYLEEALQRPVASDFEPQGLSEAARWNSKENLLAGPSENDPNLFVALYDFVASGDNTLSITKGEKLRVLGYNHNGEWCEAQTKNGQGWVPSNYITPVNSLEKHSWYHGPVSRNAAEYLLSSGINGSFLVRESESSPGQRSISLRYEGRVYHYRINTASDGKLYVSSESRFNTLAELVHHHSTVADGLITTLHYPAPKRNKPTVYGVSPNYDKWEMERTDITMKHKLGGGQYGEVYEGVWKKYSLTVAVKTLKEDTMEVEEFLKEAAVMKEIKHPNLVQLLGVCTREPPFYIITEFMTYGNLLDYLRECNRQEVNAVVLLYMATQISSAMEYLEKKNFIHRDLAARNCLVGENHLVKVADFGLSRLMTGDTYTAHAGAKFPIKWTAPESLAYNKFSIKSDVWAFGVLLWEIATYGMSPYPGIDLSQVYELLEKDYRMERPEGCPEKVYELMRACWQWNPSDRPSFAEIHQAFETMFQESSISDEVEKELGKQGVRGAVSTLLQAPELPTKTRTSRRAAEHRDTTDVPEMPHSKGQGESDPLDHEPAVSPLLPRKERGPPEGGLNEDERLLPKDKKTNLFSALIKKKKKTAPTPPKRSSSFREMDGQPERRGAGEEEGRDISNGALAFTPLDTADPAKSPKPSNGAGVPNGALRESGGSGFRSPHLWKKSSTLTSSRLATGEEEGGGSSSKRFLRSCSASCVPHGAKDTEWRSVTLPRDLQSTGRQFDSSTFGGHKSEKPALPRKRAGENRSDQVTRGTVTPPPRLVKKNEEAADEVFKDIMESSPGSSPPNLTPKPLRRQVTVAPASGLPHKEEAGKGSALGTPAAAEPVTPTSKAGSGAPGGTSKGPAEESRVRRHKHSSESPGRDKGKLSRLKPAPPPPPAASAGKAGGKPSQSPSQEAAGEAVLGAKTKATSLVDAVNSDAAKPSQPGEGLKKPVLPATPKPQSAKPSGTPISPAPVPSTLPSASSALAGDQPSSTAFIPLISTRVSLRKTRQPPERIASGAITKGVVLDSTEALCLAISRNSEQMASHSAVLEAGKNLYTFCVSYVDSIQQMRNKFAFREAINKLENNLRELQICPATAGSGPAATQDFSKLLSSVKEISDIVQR

[25] = AUC (0 to last) in plasma of Brown Norway rat administered 0.3% suspension using 4 uL topical drop to both eyes as single dose by LC-MS/MS analysis; type: ADME; set-up: dose 4 uL, time 0 - last, route ophthalmic; conditions: topical or ocular, 4 uL of 0.3% suspension per eye
[26] = molecular target: Proto-oncogene tyrosine-protein kinase receptor Ret (Homo sapiens, UniProt P07949); assay: Inhibition of human RET
Chain of Proto-oncogene tyrosine-protein kinase receptor Ret (P07949 whole entry): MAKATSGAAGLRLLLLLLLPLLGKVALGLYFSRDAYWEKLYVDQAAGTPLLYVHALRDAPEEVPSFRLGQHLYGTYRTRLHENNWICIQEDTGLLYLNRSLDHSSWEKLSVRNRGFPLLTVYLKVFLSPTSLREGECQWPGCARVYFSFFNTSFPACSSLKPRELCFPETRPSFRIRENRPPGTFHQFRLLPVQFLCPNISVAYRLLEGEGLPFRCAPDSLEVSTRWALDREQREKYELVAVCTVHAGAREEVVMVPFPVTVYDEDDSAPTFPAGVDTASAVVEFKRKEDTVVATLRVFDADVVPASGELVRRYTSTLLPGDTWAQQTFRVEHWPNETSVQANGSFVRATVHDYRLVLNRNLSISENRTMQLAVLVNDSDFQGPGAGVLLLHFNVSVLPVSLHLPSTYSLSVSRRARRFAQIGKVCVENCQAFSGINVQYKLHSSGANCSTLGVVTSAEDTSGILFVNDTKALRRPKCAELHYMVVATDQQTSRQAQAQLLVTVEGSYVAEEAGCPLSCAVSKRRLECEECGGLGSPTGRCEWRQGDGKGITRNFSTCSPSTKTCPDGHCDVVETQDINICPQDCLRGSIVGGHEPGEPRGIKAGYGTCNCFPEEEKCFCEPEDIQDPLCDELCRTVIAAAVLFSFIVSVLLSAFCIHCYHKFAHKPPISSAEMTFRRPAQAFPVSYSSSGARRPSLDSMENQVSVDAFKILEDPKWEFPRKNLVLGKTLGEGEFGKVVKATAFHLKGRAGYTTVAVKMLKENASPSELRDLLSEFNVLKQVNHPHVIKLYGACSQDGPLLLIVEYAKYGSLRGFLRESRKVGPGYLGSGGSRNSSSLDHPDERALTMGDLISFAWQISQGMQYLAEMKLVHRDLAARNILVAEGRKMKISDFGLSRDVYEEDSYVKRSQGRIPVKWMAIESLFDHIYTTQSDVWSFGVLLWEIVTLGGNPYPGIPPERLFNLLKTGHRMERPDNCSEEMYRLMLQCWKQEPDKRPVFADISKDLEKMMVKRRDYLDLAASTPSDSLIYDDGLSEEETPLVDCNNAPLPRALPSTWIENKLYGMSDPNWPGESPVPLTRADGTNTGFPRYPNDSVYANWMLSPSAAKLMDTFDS

[27] = tested on: Cynomolgus monkey; assay: Toxicity in cynomolgus monkey anterior region of eye administered 0.5% suspension using 30 uL topical drop to both eyes every 3 hrs for 9 hrs over 5 days by slit lamp biomicroscopic method; set-up: species or system Macaca fascicularis; conditions: in vivo, topical_or_ocular
[28] = Tmax in cynomolgus monkey plasma administered 0.5% suspension using 30 uL topical drop to both eyes every 3 hrs for 9 hrs over 5 days and single drop to each eye on day 6 by LC-MS/MS analysis; type: ADME, Macaca fascicularis; conditions: topical or ocular, 30 uL of 0.5% suspension per eye
[29] = Cmax in plasma of Brown Norway rat administered 0.3% suspension using 4 uL topical drop to both eyes every 3 hrs for 9 hrs over 10 days and single drop to each eye on day 11 by LC-MS/MS analysis; type: ADME; conditions: topical or ocular, 4 uL of 0.3% suspension per eye
[30] = AUC (0 to last) in posterior eye cup of Brown Norway rat administered 0.3% suspension using 4 uL topical drop to both eyes as single dose by LC-MS/MS analysis; type: ADME; conditions: topical or ocular, 4 uL of 0.3% suspension per eye
[31] = Solubility of compound at pH 7.4; type: physicochemical; conditions: buffer
[32] = molecular target: Tyrosine-protein kinase Lyn (Homo sapiens, UniProt P07948); assay: Inhibition of human LYN
Chain of Tyrosine-protein kinase Lyn (P07948 whole entry): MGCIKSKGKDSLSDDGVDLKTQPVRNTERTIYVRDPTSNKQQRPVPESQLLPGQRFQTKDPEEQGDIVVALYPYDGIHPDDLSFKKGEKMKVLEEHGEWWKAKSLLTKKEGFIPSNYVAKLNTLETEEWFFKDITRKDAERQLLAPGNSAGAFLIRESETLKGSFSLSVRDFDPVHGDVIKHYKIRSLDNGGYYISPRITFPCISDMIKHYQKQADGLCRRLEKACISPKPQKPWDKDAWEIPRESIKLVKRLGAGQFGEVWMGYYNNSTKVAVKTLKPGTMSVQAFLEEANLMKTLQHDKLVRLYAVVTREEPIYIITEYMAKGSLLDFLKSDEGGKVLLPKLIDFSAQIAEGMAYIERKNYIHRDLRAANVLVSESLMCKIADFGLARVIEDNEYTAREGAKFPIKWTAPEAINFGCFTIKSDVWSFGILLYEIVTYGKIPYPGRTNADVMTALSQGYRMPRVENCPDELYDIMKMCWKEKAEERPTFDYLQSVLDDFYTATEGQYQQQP

[33] = tested on: Mus musculus; assay: Antiangiogenic activity in C57BL/6 mouse laser-induced choroidal neovascularization model assessed as inhibition of neovascularization administered 1% suspension using 3.5 uL topical drop to both eyes every 3 hrs for 9 hrs by microscopic analysis
[34] = AUC (0 to 6 hrs) in cynomolgus monkey plasma administered 1% suspension using 30 uL topical drop to both eyes as single dose by LC-MS/MS analysis; type: ADME, Macaca fascicularis; set-up: time < 6 hr, dose 30 uL, route ophthalmic; conditions: topical or ocular, 30 uL of 1% suspension per eye
[35] = Tmax in cynomolgus monkey plasma administered 1% suspension using 30 uL topical drop to both eyes as single dose by LC-MS/MS analysis; type: ADME, Macaca fascicularis; conditions: topical or ocular, 30 uL of 1% suspension per eye
[36] = Cmax in cynomolgus monkey plasma administered 1% suspension using 30 uL topical drop to both eyes as single dose by LC-MS/MS analysis; type: ADME, Macaca fascicularis; set-up: dose 30 uL, route ophthalmic; conditions: topical or ocular, 30 uL of 1% suspension per eye
[37] = AUC (0 to 6 hrs) in cynomolgus monkey plasma administered 1% solution using 30 uL topical drop to both eyes as single dose by LC-MS/MS analysis; type: ADME, Macaca fascicularis; set-up: time < 6 hr, dose 30 uL, route ophthalmic; conditions: topical or ocular, 30 uL of 1% solution per eye
[38] = Tmax in cynomolgus monkey plasma administered 1% solution using 30 uL topical drop to both eyes as single dose by LC-MS/MS analysis; type: ADME, Macaca fascicularis; conditions: topical or ocular, 30 uL of 1% solution per eye
[39] = tested on: Rattus norvegicus; assay: Antiangiogenic activity in Brown Norway rat laser-induced choroidal neovascularization model assessed as inhibition of neovascularization administered topical drop to both eyes as qd by microscopic analysis; type: functional
[40] = tested on: Rattus norvegicus; assay: Antiangiogenic activity in Brown Norway rat laser-induced choroidal neovascularization model assessed as inhibition of neovascularization administered both eyes every 4.5 hrs for 9 hrs by microscopic analysis; type: functional
[41] = tested on: Rattus norvegicus; assay: Antiangiogenic activity in Brown Norway rat laser-induced choroidal neovascularization model assessed as inhibition of neovascularization administered 3% suspension using 4 uL topical drop to both eyes every 4.5 hrs for 9 hrs by microscopic analysis; type: functional
[42] = tested on: Rattus norvegicus; assay: Antiangiogenic activity in Brown Norway rat laser-induced choroidal neovascularization model assessed as inhibition of neovascularization administered both eyes every 3 hrs for 9 hrs by microscopic analysis; type: functional
[43] = Half life in cynomolgus monkey plasma administered 1% solution using 30 uL topical drop to both eyes as single dose by LC-MS/MS analysis; type: ADME, Macaca fascicularis; conditions: topical or ocular, 30 uL of 1% solution per eye
[44] = Cmax in cynomolgus monkey plasma administered 1% solution using 30 uL topical drop to both eyes as single dose by LC-MS/MS analysis; type: ADME, Macaca fascicularis; set-up: dose 30 uL, route ophthalmic; conditions: topical or ocular, 30 uL of 1% solution per eye
[45] = Half life in cynomolgus monkey plasma administered 1% suspension using 30 uL topical drop to both eyes as single dose by LC-MS/MS analysis; type: ADME, Macaca fascicularis; conditions: topical or ocular, 30 uL of 1% suspension per eye

Chain of Platelet-derived growth factor receptor alpha (P16234 whole entry): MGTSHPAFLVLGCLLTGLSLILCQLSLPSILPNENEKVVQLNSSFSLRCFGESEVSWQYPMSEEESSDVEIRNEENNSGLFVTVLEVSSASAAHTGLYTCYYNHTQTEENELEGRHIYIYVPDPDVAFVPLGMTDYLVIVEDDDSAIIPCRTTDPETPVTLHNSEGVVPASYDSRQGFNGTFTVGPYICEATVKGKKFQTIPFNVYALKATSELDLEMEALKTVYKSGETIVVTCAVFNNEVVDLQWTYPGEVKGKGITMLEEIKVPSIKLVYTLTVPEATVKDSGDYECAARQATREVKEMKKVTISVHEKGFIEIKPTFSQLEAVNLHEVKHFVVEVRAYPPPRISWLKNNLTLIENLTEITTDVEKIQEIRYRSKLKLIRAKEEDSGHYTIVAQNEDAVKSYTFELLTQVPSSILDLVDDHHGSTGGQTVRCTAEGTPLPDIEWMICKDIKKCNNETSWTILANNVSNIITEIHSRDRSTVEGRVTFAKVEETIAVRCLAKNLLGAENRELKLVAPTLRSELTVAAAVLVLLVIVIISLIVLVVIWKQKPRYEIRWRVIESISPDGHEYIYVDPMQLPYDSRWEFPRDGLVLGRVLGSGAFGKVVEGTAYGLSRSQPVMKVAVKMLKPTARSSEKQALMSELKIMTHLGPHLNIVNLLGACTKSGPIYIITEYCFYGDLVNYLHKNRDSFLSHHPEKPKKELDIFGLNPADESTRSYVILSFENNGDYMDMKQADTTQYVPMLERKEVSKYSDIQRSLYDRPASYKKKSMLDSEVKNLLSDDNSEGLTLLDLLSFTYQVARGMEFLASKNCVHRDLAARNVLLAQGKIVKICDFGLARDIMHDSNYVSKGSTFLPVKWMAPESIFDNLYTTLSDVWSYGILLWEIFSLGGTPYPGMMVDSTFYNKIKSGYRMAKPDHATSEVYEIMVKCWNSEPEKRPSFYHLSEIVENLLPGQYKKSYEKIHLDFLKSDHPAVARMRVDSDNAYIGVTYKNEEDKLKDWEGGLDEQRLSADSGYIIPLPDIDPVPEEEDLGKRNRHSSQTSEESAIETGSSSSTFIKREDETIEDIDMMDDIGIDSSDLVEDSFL

SMILES: CNCc1cc(Oc2ccc3c(ccn3C(=O)Nc3cc(C(C)C)[nH]n3)c2)ncn1
- microsomal CLint at 1 µM [1]: 52.3 µL/min/mg

SMILES: CC(=O)N1Cc2ncnc(Oc3ccc4c(ccn4C(=O)Nc4cc(C5CC5)on4)c3)c2C[C@@H]1C
- IC50 [2]: < 500 nM
- AUC(0-t) [3]: 2.51 µM·h
- IC50 [4]: < 500 nM
- AUC(0-t) [5]: 0.22 µM·h
- Activity [6]: Non-Toxic
- Cmax [7]: 4730 nM
- Cmax [8]: 228 nM
- Cmax [9]: 150 nM
- Cmax [10]: 51.6 nM
- inhibition (INH) [11]: 50%
- AUC(0-t) [12]: 0.764 µM·h
- AUC(0-t) [13]: 1.07 µM·h
- AUC(0-t) [14]: 0.923 µM·h
- Cmax [15]: 65.8 nM
- AUC(0-t) [16]: 29.5 µM·h
- Tmax [17]: 11 h
- concentration [18]: 84.4 nM
- Cmax [19]: 2860 nM
- Activity [20]: Non-Toxic
- Cmax [21]: 138 nM
- concentration at 24 h [22]: 64 nM
- inhibition (INH) [23]: 55%
- IC50 [24]: < 500 nM
- AUC(0-t) [25]: 0.449 µM·h
- IC50 [26]: < 500 nM
- Activity [27]: Non-Toxic
- Tmax [28]: 3 h
- Cmax [29]: 78.6 nM
- AUC(0-t) [30]: 8.97 µM·h
- solubility [31]: 0.6 µM (≈ 0.284 µg/mL)
- IC50 [32]: < 500 nM

SMILES: O=C(Nc1cc(C2CC2)on1)n1ccc2cc(Oc3cc(CO)ncn3)ccc21
- inhibition [33]: inactive

SMILES: CNCc1cc(Oc2ccc3c(ccn3C(=O)Nc3cc(C(F)(F)F)n(C)n3)c2)ncn1
- AUC(0-t) at 6 h [34]: 0.0227 µM·h
- AUC(0-t) [5]: 4.63 µM·h
- microsomal CLint at 1 µM [1]: 156 µL/min/mg
- Cmax [7]: 31800 nM
- Cmax [9]: 683 nM
- Cmax [10]: 36.6 nM
- Tmax [35]: 1.67 h
- Cmax [36]: 5.38 nM
- AUC(0-t) at 6 h [37]: 0.0644 µM·h
- AUC(0-t) [12]: 14.3 µM·h
- Tmax [38]: 0.67 h
- ED50 [39]: 1.4%
- ED50 [40]: 1%
- ED90 [40]: 2.6%
- AUC(0-t) [14]: 0.0244 µM·h
- AUC(0-t) [16]: 515 µM·h
- inhibition (INH) [41]: 94%
- ED50 [42]: 0.5%
- ED90 [42]: 1.2%
- Cmax [19]: 5690 nM
- Cmax [21]: 1910 nM
- half-life [43]: 1.61 h
- AUC(0-t) [25]: 0.0343 µM·h
- Cmax [44]: 26.9 nM
- half-life [45]: 4.38 h
- Cmax [29]: 32.1 nM
- AUC(0-t) [30]: 52 µM·h

Source: ChEMBL document CHEMBL4052831, “The Discovery of N-(1-Methyl-5-(trifluoromethyl)-1H-pyrazol-3-yl)-5-((6- ((methylamino)methyl)pyrimidin-4-yl)oxy)-1H-indole-1-carboxamide (Acrizanib), a VEGFR-2 Inhibitor Specifically Designed for Topical Ocular Delivery, as a Therapy for Neovascular Age-Related Macular Degeneration” (J Med Chem, 2018)
